Test results taken from PMC8996072, “Ag120-Mediated Inhibition of ASCT2-Dependent Glutamine Transport has an Anti-Tumor Effect on Colorectal Cancer Cells” (Frontiers in Pharmacology, 2022).

Target: T1, ASCT2 (Homo sapiens, UniProt Q15758)
T1 construct: gene SLC1A5
T1 sequence (Q15758 1-541): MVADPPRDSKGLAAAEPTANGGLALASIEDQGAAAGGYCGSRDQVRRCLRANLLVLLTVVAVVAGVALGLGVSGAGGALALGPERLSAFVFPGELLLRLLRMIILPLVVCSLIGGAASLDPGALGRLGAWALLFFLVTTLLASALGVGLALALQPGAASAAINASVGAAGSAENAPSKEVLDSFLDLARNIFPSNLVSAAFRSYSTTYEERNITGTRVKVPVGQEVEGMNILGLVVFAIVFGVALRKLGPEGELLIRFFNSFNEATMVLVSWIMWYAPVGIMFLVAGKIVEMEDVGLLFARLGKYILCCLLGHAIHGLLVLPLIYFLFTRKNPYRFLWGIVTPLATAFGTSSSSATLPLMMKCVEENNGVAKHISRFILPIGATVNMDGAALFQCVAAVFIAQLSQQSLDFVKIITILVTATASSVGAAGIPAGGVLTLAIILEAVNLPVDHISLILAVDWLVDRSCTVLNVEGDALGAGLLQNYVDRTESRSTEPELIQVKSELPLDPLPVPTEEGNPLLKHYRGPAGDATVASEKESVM
Assay: SPR (Biacore T200), purified human ASCT2
Assay type: binding

Kd: 5.91 µM
Compound: N#Cc1ccnc(N2C(=O)CC[C@H]2C(=O)N(c2cncc(F)c2)[C@H](C(=O)NC2CC(F)(F)C2)c2ccccc2Cl)c1 [Ag120]
